Laboratory results published in PMC5786788, “Antimicrobial Octapeptin C4 Analogues Active against Cryptococcus Species” (Antimicrobial Agents and Chemotherapy, 2018).
Converted amounts (≈) assume the structure as drawn. “Also recorded” adds a separate entry of the source. Where a SMILES comes first, the peptide text is derived from it. Bridges are numbered along the chain shown (N, C = ends). [ ]: non-standard residue; d: D form. The star is where a group is joined. Decanoyl(3R-OH) = CCCCCCC[C@@H](O)CC(=O)*; dDab = NCC[C@@H](N)C(=O)O; Dab = NCC[C@H](N)C(=O)O

Legend:
C. neoformans H99 = system: C. neoformans H99
Description: (§1) A broth microdilution assay was initially used to characterize the antifungal activity of the cyclic lipopeptides ([39], [40]). […] common pathogenic yeasts (C. albicans, C. glabrata, C. parapsilosis, C. neoformans, and C. gattii) and one pathogenic mold (A. fumigatus) were tested to determine the MIC for each compound (Table 1) using broth microdilution. […] The only structural difference between these molecules is the presence of a phenylalanine residue at position 6 in PMB; in PME a D-leucine is present at this location (Fig. 1).
(§2) Fungal strains were stored in 15% glycerol at −80°C until use. The fungal strains used were H99 (C. neoformans type strain) ([55]), cap59Δ (an acapsular H99 mutant) ([56]), ATCC 90113 (C. neoformans), MMRL 2651 (C. gattii), ATCC 90028 (Candida albicans), ATCC 90030 (Candida glabrata), ATCC 22019 (Candida parapsilosis), and ATCC MYA 3626 (Aspergillus fumigatus). Yeasts were cultured in liquid (1% yeast extract, 2% Bacto peptone, 2% glucose) or solid (additional 2% agar) yeast extract-peptone-dextrose (YPD) media at 30°C and maintained at 4°C for no longer than 2 weeks. A. fumigatus was prepared on potato dextrose medium at 30°C and maintained at 4°C for no longer than 2 weeks.
(§3) The MICs of the yeast strains for PMB, PME, and octapeptin C4 and its derivatives were determined in accordance with CLSI M27-A2 guidelines using YNB (Becton Dickinson, USA) medium supplemented with 10 mM ammonium sulfate and 2% glucose, a final inoculum concentration of 1.5 × 10^3 to 2.0 × 10^3 cells/ml, and incubation at 35°C for 72 h ([39]). […] The MICs for PMB, PME, and octapeptin C4 for A. fumigatus were determined in accordance with the CLSI M38-A2 guidelines ([40]) using synthetic RPMI 1640 medium (with glutamine, without bicarbonate and with phenol red; Life Technologies, USA). The final inoculum concentration was 0.4 × 10^4 to 5 × 10^4 cells/ml, with incubation at 35°C for 48 h. […] All assays were completed in triplicate. Fluconazole was used as a positive control where the MIC was determined at both 50% growth (in accordance with CLSI M27-A2 guidelines) and when there was a “no visible growth” reading.

C. neoformans ATCC 90113 = conditions: ATCC 90113, 72 h
Description: as §1, §2, §3

C. gattii MMRL 2651 = conditions: 72 h
Description: as §1, §2, §3

[1] = system: capsule-induced or -suppressed C. neoformans H99 cells; test: In vitro time course assay of capsule influence; format: cell-based, Cryptococcus neoformans; conditions: H99; PMB at 12.5 μM, octapeptin C4 at 1.56 μM; 0-8 h; two replicates
Description: (A) C. neoformans grown on capsule inducing RPMI 1640 agar medium (without L-glutamine and sodium bicarbonate) with incubation at 37°C in 5% CO2 for 3 days. Scale bar, 20 μm. (B) C. neoformans grown on capsule-suppressing media, YPD containing 1 M NaCl at 30°C in ambient air for 3 days. […] The data represent the means of two replicates, and the error bars represent the standard errors of the mean (SEM).
Capsule induction of strain H99 was achieved as described by Zhai et al. ([37]) with growth on RPMI 1640 (without L-glutamine and sodium bicarbonate) (Sigma, Australia) agar medium and incubation at 37°C in 5% CO2 and capsule suppression by growth on YPD containing 1 M NaCl at 30°C in ambient air. After 3 days, the cells from each culture were collected, washed twice with phosphate-buffered saline (PBS), and resuspended in PBS to avoid changes in the capsule at a density of 1,500 to 2,000 cells/ml. Cell suspensions were treated with test compounds at the determined MIC value. The compounds tested were PMB sulfate, octapeptin C4, and the octapeptin C4 alanine scan derivatives P1L, P1D, P4, P3, P4L, P4D, P5, P6, P7, and P8. At 0, 1, 2, 4, 6, and 8 h after inoculation, samples from each treatment were spread onto a YPD plate, followed by incubation at 30°C for 3 days, at which time the colonies were counted. The assay was repeated in duplicate, and paired sample t tests were performed using GraphPad Prism v7.0 (GraphPad Software, USA).

[2] = system: C. neoformans H99 (cap59Δ); format: cell-based, Cryptococcus neoformans; conditions: triplicate
From the text: The different susceptibility of C. neoformans and C. gattii to PMB compared to other pathogenic fungi such as C. albicans and A. fumigatus has been postulated to arise from differences in cell surface composition ([38]). One key difference is the presence of a negatively charged polysaccharide capsule in Cryptococcus spp. proposed to concentrate the cationic lipopeptides at the cell surface ([38]). To examine this potential interaction for the octapeptin series, a C. neoformans cap59Δ mutant strain deficient in the secretion of negatively charged glucuronoxylomannan (an α1–3-linked mannan containing β1,2 and β1,4 xylosyl substitutions, as well as β1,2-linked glucuronyl residues) ([41], [42]), was tested against octapeptin C4 in comparison to PMB.
as §2, §3

CCCCCCC[C@@H](O)CC(=O)N[C@H](CCN)C(=O)N[C@H]1CCNC(=O)[C@H](CC(C)C)NC(=O)[C@H](CCN)NC(=O)[C@H](CCN)NC(=O)[C@H](CC(C)C)NC(=O)[C@@H](Cc2ccccc2)NC(=O)[C@H](CCN)NC1=O [Octapeptin C4, octapeptin C4] ({Decanoyl(3R-OH)}-[dDab][Dab][Dab][dF]L[Dab][Dab]L; lactam 2-C (inferred); N-terminus assumed)
MIC C. neoformans H99 (C. neoformans H99; H99, 72 h): 1.56 µg/mL (≈ 1.49 µM) | MICs against various Cryptococcus strains: H99 (C. neoformans H99; H99, 72 h): 1.56 µg/mL | fold more potent than PMB (C. neoformans H99; by MIC against C. neoformans): ~8 fold | fold more potent than PME (C. neoformans H99; by MIC against C. neoformans): > 60 fold | MIC C. neoformans ATCC 90113 (C. neoformans ATCC 90113): 1.56 µg/mL (≈ 1.49 µM) | MICs against various Cryptococcus strains: ATCC 90113 (C. neoformans ATCC 90113): 1.56 µg/mL | MIC C. gattii (C. gattii MMRL 2651): 3.13 µg/mL (≈ 3 µM) | MICs against various Cryptococcus strains: MMRL 2651 (C. gattii MMRL 2651): 3.13 µg/mL | effect of capsule formation on fungicidal activity [1]: retarded the fungicidal activity; also recorded: small but statistically significant increase in survival | MIC C. neoformans H99 (cap59Δ) ([2]; Table 1, CLSI M27-A2, YNB medium, 35°C, no visible growth after 72 h): 6.25 µg/mL (≈ 5.98 µM) | MICs against various Cryptococcus strains: H99 (cap59Δ) ([2]; Table 2, values consistent across replicates): 6.25 µg/mL
